Values after ≈ are worked out from the molar mass of the structure shown.
How the values were obtained:
[1] = Solubility of compound at pH 7; assay type: physicochemical; conditions: buffer
[2] = target: Ephrin type-A receptor 2 (Homo sapiens, UniProt P29317); experiment: Inhibition of EphA2 assessed as [33P]gamma-ATP incorporation into substrate after 60 mins by gamma counting
[3] = target: Aurora kinase B (Homo sapiens, UniProt Q96GD4); experiment: Inhibition of Aur-B assessed as [33P]gamma-ATP incorporation into substrate after 60 mins by gamma counting
[4] = target: Vascular endothelial growth factor receptor 3 (Homo sapiens, UniProt P35916); experiment: Inhibition of VEGFR3 assessed as [33P]gamma-ATP incorporation into substrate after 60 mins by gamma counting
[5] = target: Cyclin-dependent kinase 2/cyclin A (Homo sapiens, UniProt P24941); experiment: Inhibition of CDK2/CYCA assessed as [33P]gamma-ATP incorporation into substrate after 60 mins by gamma counting; assay type: protein-complex assay
[6] = target: Proto-oncogene tyrosine-protein kinase ROS (Homo sapiens, UniProt P08922); experiment: Inhibition of ROS1 assessed as [33P]gamma-ATP incorporation into substrate after 60 mins by gamma counting
[7] = target: Serine/threonine-protein kinase haspin (Homo sapiens, UniProt Q8TF76); experiment: Inhibition of Haspin assessed as [33P]gamma-ATP incorporation into substrate after 60 mins by gamma counting
[8] = target: Aurora kinase A (Homo sapiens, UniProt O14965); experiment: Inhibition of Aur-A assessed as [33P]gamma-ATP incorporation into substrate after 60 mins by gamma counting
[9] = Intrinsic clearance in human liver microsomes at 1 uM; assay type: ADME, Microsome
[10] = system: Mus musculus; experiment: Toxicity in CD1 nu/nu mouse xenografted with human HCT116 cells assessed as reversible body weight loss at 120 mg/kg, po once daily administered on days 1 to 2 in weekly scheduling for 4 cycles measured on day 29; conditions: in vivo
[11] = target: Tyrosine-protein kinase ZAP-70 (Homo sapiens, UniProt P43403); experiment: Inhibition of ZAP70 assessed as [33P]gamma-ATP incorporation into substrate after 60 mins by gamma counting
[12] = target: Activated CDC42 kinase 1 (Homo sapiens, UniProt Q07912); experiment: Inhibition of ACK1 assessed as [33P]gamma-ATP incorporation into substrate after 60 mins by gamma counting
[13] = target: Fibroblast growth factor receptor 1 (Homo sapiens, UniProt P11362); experiment: Inhibition of FGFR1 assessed as [33P]gamma-ATP incorporation into substrate after 60 mins by gamma counting
[14] = target: Serine/threonine-protein kinase Chk1 (Homo sapiens, UniProt O14757); experiment: Inhibition of CHK1 assessed as [33P]gamma-ATP incorporation into substrate after 60 mins by gamma counting
[15] = target: Serine/threonine-protein kinase Nek6 (Homo sapiens, UniProt Q9HC98); experiment: Inhibition of NEK6 assessed as [33P]gamma-ATP incorporation into substrate after 60 mins by gamma counting
[16] = target: Non-receptor tyrosine-protein kinase TYK2 (Homo sapiens, UniProt P29597); experiment: Inhibition of TYK2 assessed as [33P]gamma-ATP incorporation into substrate after 60 mins by gamma counting
[17] = target: Eukaryotic translation initiation factor 2-alpha kinase 3 (Homo sapiens, UniProt Q9NZJ5); experiment: Inhibition of PERK assessed as [33P]gamma-ATP incorporation into substrate after 60 mins by gamma counting
[18] = target: High affinity nerve growth factor receptor (Homo sapiens, UniProt P04629); experiment: Inhibition of TRKA assessed as [33P]gamma-ATP incorporation into substrate after 60 mins by gamma counting
[19] = target: Focal adhesion kinase 1 (Homo sapiens, UniProt Q05397); experiment: Inhibition of FAK assessed as [33P]gamma-ATP incorporation into substrate after 60 mins by gamma counting
[20] = target: Protein-tyrosine kinase 6 (Homo sapiens, UniProt Q13882); experiment: Inhibition of BRK assessed as [33P]gamma-ATP incorporation into substrate after 60 mins by gamma counting
[21] = target: Mitogen-activated protein kinase 1 (Homo sapiens, UniProt P28482); experiment: Inhibition of ERK2 assessed as [33P]gamma-ATP incorporation into substrate after 60 mins by gamma counting
[22] = Inhibition of SULU1 assessed as [33P]gamma-ATP incorporation into substrate after 60 mins by gamma counting
[23] = target: Vascular endothelial growth factor receptor 2 (Homo sapiens, UniProt P35968); experiment: Inhibition of VEGFR2 assessed as [33P]gamma-ATP incorporation into substrate after 60 mins by gamma counting
[24] = target: Tyrosine-protein kinase Lyn (Homo sapiens, UniProt P07948); experiment: Inhibition of LYN assessed as [33P]gamma-ATP incorporation into substrate after 60 mins by gamma counting
[25] = target: Insulin receptor (Homo sapiens, UniProt P06213); experiment: Inhibition of IR assessed as [33P]gamma-ATP incorporation into substrate after 60 mins by gamma counting
[26] = target: CDC7/DBF4 (Cell division cycle 7-related protein kinase/Activator of S phase kinase) (Homo sapiens, UniProt O00311); experiment: Inhibition of CDC7/DBF4 assessed as [33P]gamma-ATP incorporation into substrate after 60 mins by gamma counting; assay type: protein-complex assay
[27] = target: Inhibitor of nuclear factor kappa-B kinase subunit beta (Homo sapiens, UniProt O14920); experiment: Inhibition of IKK2 assessed as [33P]gamma-ATP incorporation into substrate after 60 mins by gamma counting
[28] = target: Cyclin-dependent kinase 4/cyclin D1 (Homo sapiens, UniProt P11802); experiment: Inhibition of CDK4/CYCD1 assessed as [33P]gamma-ATP incorporation into substrate after 60 mins by gamma counting; assay type: protein-complex assay
[29] = target: Serine/threonine-protein kinase 26 (Homo sapiens, UniProt Q9P289); experiment: Inhibition of MST4 assessed as [33P]gamma-ATP incorporation into substrate after 60 mins by gamma counting
[30] = target: Tyrosine-protein kinase JAK3 (Homo sapiens, UniProt P52333); experiment: Inhibition of JAK3 assessed as [33P]gamma-ATP incorporation into substrate after 60 mins by gamma counting
[31] = target: Serine/threonine-protein kinase pim-2 (Homo sapiens, UniProt Q9P1W9); experiment: Inhibition of PIM2 assessed as [33P]gamma-ATP incorporation into substrate after 60 mins by gamma counting

Sequence of Activated CDC42 kinase 1 (Q07912 whole entry): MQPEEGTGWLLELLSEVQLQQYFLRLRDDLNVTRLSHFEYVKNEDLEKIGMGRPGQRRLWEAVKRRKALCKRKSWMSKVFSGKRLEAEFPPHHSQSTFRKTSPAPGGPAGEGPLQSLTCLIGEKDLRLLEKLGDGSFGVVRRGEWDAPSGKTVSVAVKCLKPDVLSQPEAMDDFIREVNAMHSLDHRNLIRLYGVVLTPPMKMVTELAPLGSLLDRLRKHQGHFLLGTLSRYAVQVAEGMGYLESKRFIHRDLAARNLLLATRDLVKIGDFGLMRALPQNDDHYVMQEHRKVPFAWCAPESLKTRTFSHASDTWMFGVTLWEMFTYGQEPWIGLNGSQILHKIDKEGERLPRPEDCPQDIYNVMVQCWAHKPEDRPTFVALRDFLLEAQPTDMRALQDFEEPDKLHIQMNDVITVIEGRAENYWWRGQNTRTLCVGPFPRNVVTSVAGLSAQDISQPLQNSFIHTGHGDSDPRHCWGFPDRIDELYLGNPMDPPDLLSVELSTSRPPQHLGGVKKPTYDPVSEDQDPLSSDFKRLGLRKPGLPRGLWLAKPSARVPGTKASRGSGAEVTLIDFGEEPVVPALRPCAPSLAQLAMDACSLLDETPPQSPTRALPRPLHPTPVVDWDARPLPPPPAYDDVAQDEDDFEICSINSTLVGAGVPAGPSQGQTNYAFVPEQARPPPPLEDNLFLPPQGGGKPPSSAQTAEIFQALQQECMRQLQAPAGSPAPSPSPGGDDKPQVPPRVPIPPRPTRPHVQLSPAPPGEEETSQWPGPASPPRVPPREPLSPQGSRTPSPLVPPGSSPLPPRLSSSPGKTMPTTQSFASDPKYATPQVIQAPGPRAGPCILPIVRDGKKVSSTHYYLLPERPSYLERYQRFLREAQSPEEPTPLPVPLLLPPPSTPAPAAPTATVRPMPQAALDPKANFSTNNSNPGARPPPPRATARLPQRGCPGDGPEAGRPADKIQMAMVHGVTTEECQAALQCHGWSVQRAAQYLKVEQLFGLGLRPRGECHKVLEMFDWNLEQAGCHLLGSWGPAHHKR
Sequence of Aurora kinase B (Q96GD4 whole entry): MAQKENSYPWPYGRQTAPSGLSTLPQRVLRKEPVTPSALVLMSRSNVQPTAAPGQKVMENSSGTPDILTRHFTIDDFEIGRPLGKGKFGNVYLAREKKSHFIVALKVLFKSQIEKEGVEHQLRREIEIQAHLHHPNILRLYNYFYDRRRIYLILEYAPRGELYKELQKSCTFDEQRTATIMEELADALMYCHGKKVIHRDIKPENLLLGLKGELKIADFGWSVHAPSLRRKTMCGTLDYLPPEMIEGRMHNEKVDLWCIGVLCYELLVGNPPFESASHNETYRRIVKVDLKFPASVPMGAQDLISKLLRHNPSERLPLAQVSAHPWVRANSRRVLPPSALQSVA
Sequence of Serine/threonine-protein kinase 26 (Q9P289 whole entry): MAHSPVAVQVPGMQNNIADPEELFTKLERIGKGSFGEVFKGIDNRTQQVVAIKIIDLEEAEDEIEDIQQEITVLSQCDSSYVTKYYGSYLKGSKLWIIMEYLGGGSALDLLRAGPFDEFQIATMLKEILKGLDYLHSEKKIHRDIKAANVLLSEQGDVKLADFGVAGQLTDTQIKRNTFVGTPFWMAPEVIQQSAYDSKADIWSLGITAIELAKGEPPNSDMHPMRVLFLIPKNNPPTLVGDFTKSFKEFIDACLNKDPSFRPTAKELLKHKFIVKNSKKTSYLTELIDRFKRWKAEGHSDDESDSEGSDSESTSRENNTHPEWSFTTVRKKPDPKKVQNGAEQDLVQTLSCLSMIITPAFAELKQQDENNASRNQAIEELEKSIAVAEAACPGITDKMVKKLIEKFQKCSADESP
Sequence of Eukaryotic translation initiation factor 2-alpha kinase 3 (Q9NZJ5 whole entry): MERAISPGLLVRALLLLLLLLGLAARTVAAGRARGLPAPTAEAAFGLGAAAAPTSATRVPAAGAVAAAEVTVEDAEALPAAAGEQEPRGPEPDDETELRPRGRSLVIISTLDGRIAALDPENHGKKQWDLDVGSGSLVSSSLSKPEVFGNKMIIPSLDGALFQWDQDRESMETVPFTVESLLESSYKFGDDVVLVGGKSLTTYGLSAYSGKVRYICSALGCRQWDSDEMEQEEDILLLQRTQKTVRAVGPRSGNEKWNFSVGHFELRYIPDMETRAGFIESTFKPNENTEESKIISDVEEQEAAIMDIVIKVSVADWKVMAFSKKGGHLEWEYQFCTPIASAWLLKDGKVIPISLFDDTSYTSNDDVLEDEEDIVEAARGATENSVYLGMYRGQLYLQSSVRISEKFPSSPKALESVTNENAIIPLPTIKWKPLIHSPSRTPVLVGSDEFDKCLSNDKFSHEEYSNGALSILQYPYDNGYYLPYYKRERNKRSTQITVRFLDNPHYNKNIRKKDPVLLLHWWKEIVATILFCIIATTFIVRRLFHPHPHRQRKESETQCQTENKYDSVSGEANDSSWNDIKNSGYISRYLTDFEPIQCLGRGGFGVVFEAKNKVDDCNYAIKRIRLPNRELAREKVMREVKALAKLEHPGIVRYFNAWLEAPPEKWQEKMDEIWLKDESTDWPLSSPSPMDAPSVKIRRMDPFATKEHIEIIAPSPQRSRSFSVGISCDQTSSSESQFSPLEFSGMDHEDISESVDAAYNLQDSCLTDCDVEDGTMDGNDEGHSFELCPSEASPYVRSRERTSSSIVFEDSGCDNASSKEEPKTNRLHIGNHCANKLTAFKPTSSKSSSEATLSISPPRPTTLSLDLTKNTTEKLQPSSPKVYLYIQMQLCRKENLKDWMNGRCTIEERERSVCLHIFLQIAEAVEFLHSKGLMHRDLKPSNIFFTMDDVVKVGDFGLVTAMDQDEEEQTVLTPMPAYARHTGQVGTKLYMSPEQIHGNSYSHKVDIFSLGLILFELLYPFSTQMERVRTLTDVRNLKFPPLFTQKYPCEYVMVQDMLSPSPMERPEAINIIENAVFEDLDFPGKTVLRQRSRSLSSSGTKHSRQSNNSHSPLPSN
Sequence of Non-receptor tyrosine-protein kinase TYK2 (P29597 whole entry): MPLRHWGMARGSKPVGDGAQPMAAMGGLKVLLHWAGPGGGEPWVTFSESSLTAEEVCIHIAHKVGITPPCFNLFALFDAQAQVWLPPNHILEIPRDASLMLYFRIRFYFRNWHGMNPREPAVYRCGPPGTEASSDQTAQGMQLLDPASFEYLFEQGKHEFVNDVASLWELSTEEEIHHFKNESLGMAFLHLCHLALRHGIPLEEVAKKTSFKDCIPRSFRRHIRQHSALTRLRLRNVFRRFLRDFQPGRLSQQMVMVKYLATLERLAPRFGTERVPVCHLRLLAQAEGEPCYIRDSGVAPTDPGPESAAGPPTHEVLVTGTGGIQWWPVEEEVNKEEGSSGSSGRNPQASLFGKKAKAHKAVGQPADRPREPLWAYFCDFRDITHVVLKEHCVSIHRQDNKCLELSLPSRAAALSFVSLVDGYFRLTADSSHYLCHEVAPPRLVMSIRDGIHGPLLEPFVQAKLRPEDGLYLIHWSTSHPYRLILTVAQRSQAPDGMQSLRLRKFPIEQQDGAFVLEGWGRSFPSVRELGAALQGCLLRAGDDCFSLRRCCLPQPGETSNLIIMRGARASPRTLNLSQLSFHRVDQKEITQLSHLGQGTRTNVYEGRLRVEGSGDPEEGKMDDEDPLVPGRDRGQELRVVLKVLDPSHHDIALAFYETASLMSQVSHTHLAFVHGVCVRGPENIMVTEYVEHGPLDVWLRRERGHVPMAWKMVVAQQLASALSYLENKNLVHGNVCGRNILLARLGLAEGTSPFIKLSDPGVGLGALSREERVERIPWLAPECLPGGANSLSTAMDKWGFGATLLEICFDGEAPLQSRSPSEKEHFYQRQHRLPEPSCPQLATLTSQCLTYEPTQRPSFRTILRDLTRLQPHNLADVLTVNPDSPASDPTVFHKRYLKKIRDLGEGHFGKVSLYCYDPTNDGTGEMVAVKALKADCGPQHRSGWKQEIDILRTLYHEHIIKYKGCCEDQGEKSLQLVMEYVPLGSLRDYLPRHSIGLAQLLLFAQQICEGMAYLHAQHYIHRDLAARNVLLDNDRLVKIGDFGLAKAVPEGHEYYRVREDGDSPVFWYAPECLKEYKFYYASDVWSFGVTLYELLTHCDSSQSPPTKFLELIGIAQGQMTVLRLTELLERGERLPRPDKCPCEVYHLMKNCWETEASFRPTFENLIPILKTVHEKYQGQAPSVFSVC
Sequence of Ephrin type-A receptor 2 (P29317 whole entry): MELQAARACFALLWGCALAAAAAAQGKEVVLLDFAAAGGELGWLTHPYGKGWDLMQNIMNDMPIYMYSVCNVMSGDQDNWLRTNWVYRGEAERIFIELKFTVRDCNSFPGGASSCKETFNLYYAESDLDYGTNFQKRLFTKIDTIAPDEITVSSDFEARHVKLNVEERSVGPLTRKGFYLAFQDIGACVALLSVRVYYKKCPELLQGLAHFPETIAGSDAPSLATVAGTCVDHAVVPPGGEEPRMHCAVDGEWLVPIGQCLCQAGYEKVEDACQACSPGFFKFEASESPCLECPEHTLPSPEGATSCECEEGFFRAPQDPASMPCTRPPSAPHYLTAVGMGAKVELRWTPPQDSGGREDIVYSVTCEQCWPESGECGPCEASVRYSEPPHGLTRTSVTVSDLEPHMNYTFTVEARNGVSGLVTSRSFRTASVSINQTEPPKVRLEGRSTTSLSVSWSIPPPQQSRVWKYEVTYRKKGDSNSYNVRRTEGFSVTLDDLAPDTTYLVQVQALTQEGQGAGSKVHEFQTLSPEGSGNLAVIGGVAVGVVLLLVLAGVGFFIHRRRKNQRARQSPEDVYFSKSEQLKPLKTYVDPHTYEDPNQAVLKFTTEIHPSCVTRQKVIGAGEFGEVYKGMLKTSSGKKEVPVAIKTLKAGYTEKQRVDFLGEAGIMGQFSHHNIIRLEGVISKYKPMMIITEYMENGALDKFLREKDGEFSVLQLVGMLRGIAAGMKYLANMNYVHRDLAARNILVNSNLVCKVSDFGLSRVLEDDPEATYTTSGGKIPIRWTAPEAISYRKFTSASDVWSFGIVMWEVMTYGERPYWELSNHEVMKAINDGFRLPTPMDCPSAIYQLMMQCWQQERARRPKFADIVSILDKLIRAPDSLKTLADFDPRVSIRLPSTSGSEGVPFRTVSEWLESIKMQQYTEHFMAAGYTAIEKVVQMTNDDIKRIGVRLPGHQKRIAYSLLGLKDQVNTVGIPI

CN1CCN(c2ccc(OC(F)(F)F)c(Nc3ncc4c(n3)-c3c(c(C(N)=O)nn3CCO)CC4)c2)CC1 [ONVANSERTIB]
solubility [1]: 201 µM (≈ 107 µg/mL)
IC50 [2]: > 10 µM
IC50 [3]: > 10 µM
IC50 [4]: > 10 µM
IC50 [5]: > 10 µM
IC50 [6]: > 10 µM
IC50 [7]: > 10 µM
IC50 [8]: > 10 µM
CLint scaled at 1 µM [9]: 16.9 mL/min/kg
Activity [10]: 18%
IC50 [11]: > 10 µM
IC50 [12]: > 10 µM
IC50 [13]: > 10 µM
IC50 [14]: > 10 µM
IC50 [15]: > 10 µM
IC50 [16]: > 10 µM
IC50 [17]: > 10 µM
IC50 [18]: > 10 µM
IC50 [19]: > 10 µM
IC50 [20]: > 10 µM
IC50 [21]: > 10 µM
IC50 [22]: > 10 µM
IC50 [23]: > 10 µM
IC50 [24]: > 10 µM
IC50 [25]: > 10 µM
IC50 [26]: > 10 µM
IC50 [27]: > 10 µM
IC50 [28]: > 10 µM
IC50 [29]: > 10 µM
IC50 [30]: > 10 µM
IC50 [31]: > 10 µM

From ChEMBL document CHEMBL1773059, “NMS-P937, a 4,5-dihydro-1H-pyrazolo[4,3-h]quinazoline derivative as potent and selective Polo-like kinase 1 inhibitor” (Bioorg Med Chem Lett, 2011)
